Measurements as given in ChEMBL document CHEMBL4321848 (J Med Chem, 2019).

Columns and labels:
[1] = target: T1, Nicotinamide N-methyltransferase (Homo sapiens, UniProt P40261); assay: biochemical
T1 sequence (P40261 whole entry): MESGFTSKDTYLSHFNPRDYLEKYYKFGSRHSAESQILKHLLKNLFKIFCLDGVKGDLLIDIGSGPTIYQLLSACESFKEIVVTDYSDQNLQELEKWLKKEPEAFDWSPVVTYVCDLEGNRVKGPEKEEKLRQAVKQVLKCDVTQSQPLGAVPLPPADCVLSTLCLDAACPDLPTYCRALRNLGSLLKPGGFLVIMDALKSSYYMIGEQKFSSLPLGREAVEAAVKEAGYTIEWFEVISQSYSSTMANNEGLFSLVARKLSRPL

[2] = target: T2, Phenylethanolamine N-methyltransferase (Homo sapiens, UniProt P11086); assay: Inhibition of human N-terminal His6 tagged PNMT using norepinephrine as substrate preincubated for 10 mins in presence of AdoMet followed by substrate addition by fluorescence based SAHH enzyme coupled assay
T2 sequence (P11086 whole entry): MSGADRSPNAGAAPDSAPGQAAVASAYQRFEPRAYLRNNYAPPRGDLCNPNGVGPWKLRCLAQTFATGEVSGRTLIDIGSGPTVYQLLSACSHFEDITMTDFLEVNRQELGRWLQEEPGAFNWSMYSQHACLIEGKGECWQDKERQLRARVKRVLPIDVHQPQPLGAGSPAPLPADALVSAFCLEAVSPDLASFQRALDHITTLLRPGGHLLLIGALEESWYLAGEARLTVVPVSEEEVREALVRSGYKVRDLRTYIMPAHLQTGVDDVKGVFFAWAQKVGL

[3] = target: Indolethylamine N-methyltransferase (Homo sapiens, UniProt O95050); assay: Inhibition of human N- terminal His6 tagged human INMT expressed in Escherichia coli BL21-CodonPlus(DE3)-RIL using tryptamine as substrate preincubated for 10 mins in presence of AdoMet followed by substrate addition by fluorescence based SAHH enzyme coupled assay
Indolethylamine N-methyltransferase, sequence (O95050 whole entry, the tested form may be a part): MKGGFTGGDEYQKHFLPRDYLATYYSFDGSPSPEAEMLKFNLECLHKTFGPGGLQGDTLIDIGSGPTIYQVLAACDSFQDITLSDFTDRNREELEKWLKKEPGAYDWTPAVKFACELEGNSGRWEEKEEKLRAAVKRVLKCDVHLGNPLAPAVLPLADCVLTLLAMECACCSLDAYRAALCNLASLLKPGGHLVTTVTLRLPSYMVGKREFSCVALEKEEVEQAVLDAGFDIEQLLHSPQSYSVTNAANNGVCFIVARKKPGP

[4] = target: T3, Histone-lysine N-methyltransferase EHMT2 (Homo sapiens, UniProt Q96KQ7); assay: Inhibition of recombinant human G9a (913 to 1193 residues) expressed in Escherichia coli BL21-CodonPlus(DE3)-RIL using H3-21 peptide preincubated for 10 mins in presence of AdoMet followed by substrate addition by fluorescence based SAHH enzyme coupled assay
T3 sequence (Q96KQ7 whole entry): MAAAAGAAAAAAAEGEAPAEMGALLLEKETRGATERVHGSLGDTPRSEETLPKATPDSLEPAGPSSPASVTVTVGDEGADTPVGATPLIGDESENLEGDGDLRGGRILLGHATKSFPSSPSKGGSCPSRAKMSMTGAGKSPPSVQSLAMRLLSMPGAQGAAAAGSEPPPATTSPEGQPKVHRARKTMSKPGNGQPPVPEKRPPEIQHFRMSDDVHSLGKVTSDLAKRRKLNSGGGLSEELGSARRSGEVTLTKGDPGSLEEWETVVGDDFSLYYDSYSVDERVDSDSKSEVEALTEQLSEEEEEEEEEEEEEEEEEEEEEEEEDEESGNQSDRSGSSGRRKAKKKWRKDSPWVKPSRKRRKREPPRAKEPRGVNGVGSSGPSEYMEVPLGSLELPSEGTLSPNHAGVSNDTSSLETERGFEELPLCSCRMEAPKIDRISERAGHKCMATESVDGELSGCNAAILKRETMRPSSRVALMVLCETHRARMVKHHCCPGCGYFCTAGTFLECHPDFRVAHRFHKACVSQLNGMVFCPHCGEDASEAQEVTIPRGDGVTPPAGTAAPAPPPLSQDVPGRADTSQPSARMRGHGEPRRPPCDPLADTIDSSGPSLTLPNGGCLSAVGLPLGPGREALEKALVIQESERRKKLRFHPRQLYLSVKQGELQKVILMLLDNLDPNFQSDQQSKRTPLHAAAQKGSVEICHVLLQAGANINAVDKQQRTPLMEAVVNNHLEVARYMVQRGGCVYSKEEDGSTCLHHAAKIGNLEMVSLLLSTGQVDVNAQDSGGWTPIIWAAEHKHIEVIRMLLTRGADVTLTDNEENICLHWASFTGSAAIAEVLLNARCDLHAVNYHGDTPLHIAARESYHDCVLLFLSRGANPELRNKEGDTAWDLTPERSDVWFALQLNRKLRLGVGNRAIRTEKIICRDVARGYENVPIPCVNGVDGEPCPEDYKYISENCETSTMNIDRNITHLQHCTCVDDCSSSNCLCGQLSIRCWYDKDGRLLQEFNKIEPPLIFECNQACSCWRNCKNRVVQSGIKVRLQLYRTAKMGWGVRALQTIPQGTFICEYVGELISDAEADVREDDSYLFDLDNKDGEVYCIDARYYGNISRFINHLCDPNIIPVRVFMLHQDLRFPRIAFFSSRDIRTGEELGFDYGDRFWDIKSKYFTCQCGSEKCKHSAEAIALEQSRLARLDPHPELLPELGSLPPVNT

[5] = target: T4, Histone-lysine N-methyltransferase SETD7 (Homo sapiens, UniProt Q8WTS6); assay: Inhibition of recombinant human His-tagged SETD7 (1 to 366 residues) expressed in Escherichia coli using H3-21 peptide as susbtrate preincubated for 10 mins in presence of AdoMet followed by substrate addition by fluorescence based SAHH enzyme coupled assay
T4 sequence (Q8WTS6 whole entry): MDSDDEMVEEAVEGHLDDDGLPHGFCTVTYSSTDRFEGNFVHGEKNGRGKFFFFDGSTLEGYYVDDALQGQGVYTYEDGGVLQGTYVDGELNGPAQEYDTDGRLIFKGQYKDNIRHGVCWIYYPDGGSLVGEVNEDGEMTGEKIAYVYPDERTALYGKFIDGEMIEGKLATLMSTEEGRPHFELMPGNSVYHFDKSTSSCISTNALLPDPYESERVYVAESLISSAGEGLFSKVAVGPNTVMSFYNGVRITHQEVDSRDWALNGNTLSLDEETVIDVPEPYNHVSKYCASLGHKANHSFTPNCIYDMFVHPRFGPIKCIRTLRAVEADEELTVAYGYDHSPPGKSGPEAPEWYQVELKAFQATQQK

[6] = target: Protein arginine N-methyltransferase 1 (Rattus norvegicus, UniProt Q63009); assay: Inhibition of recombinant rat His-tagged PRMT1 expressed in Escherichia coli BL21(DE3) cells using H4-21 peptide as susbtrate preincubated for 10 mins in presence of AdoMet followed by substrate addition by fluorescence based SAHH enzyme coupled assay
Protein arginine N-methyltransferase 1, sequence (Q63009 whole entry): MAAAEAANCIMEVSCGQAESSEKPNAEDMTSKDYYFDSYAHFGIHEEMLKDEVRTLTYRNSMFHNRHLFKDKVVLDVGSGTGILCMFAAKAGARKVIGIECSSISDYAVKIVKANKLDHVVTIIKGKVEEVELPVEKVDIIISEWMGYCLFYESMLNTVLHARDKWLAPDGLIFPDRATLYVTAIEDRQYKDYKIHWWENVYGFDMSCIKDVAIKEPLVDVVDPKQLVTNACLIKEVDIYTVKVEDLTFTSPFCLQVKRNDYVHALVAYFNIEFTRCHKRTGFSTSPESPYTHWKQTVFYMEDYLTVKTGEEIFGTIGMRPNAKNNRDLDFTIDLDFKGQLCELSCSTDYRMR

[7] = Inhibition of Trypanosoma brucei PRMT7 expressed in Escherichia coli preincubated for 10 mins in presence of AdoMet followed by susbtrate addition by fluorescence based SAHH enzyme coupled assay
[8] = target: T5, N-terminal Xaa-Pro-Lys N-methyltransferase 1 (Homo sapiens, UniProt Q9BV86); assay: Inhibition of NTMT1 (unknown origin) using GPKRIA peptide as substrate preincubated for 10 mins in presence of AdoMet followed by susbtrate addition by fluorescence based SAHH enzyme coupled assay
T5 sequence (Q9BV86 whole entry): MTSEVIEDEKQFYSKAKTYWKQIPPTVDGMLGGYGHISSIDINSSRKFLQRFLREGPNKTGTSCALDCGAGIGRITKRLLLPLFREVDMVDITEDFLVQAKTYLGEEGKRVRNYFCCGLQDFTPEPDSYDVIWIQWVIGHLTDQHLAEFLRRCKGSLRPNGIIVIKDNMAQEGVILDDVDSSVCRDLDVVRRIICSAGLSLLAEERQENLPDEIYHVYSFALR

[9] = target: Adenosylhomocysteinase (Homo sapiens, UniProt P23526); assay: Inhibition of SAHH (unknown origin) using SAH as substrate preincubated for 10 mins followed by susbtrate addition by fluorescence based assay
Adenosylhomocysteinase, sequence (P23526 whole entry): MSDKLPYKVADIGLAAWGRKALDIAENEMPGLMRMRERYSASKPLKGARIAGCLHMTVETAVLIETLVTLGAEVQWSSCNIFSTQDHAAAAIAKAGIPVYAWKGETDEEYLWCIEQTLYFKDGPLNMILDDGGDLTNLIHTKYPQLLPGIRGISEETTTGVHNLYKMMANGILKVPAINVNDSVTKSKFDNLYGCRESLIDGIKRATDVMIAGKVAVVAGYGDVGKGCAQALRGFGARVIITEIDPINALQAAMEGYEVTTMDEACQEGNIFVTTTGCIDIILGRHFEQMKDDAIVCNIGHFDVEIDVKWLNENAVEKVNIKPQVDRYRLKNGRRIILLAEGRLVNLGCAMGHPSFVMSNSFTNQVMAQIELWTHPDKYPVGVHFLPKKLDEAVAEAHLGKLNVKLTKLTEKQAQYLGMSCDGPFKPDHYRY

SMILES	Ki [1]	also measured
Nc1ncnc2c1ncn2[C@@H]1O[C@H](CN(CCCc2ccc3ccccc3c2)CC[C@H](N)C(=O)O)[C@@H](O)[C@H]1O	4 µM	–
Nc1ncnc2c1ncn2[C@@H]1O[C@H](CN(CCCc2cccc3ccccc23)CC[C@H](N)C(=O)O)[C@@H](O)[C@H]1O	11.8 µM	–
NC(=O)c1cccc(C#CCNC[C@H]2O[C@@H](n3cnc4c(N)ncnc43)[C@H](O)[C@@H]2O)c1	3 µM	–
Nc1ncnc2c1ncn2[C@@H]1O[C@H](CN(CCc2ccc3ccccc3c2)CC[C@H](N)C(=O)O)[C@@H](O)[C@H]1O	27.3 µM	–
NC(=O)c1cccc(C#CCN(CC[C@H](N)C(=O)O)C[C@H]2O[C@@H](n3cnc4c(N)ncnc43)[C@H](O)[C@@H]2O)c1	–	IC50 [2]: > 100 µM; IC50 [3]: > 100 µM; IC50 [4]: > 100 µM; IC50 [5]: > 100 µM; IC50 [6]: > 100 µM; IC50 [7]: > 33 µM; IC50 [8]: > 33 µM; IC50 [9]: > 3.7 µM
Nc1ncnc2c1ncn2[C@@H]1O[C@H](CN(CCCc2cccc3ccccc23)CCC[C@H](N)C(=O)O)[C@@H](O)[C@H]1O	1.1 µM	–
NC(=O)c1cccc(CCN(CC[C@H](N)C(=O)O)C[C@H]2O[C@@H](n3cnc4c(N)ncnc43)[C@H](O)[C@@H]2O)c1	10 µM	–
Nc1ncnc2c1ncn2[C@@H]1O[C@H](CN(CCCc2ccc3ccccc3c2)CCC[C@H](N)C(=O)O)[C@@H](O)[C@H]1O	33.3 µM	–
NC(=O)c1ccccc1 [BENZAMIDE]	> 100 µM	–

Continued, in another order:

Ki [1]	SMILES	also measured
0.016 µM	Cc1ccc(C#CCN(CC[C@H](N)C(=O)O)C[C@H]2O[C@@H](n3cnc4c(N)ncnc43)[C@H](O)[C@@H]2O)cc1C(N)=O	–
28 µM	COC(=O)c1cccc(CCCN(CC[C@H](N)C(=O)O)C[C@H]2O[C@@H](n3cnc4c(N)ncnc43)[C@H](O)[C@@H]2O)c1	–
0.84 µM	NC(=O)c1cccc(CCCCN(CC[C@H](N)C(=O)O)C[C@H]2O[C@@H](n3cnc4c(N)ncnc43)[C@H](O)[C@@H]2O)c1	–
0.15 µM	Cc1ccc(C(N)=O)cc1CCCN(CC[C@H](N)C(=O)O)C[C@H]1O[C@@H](n2cnc3c(N)ncnc32)[C@H](O)[C@@H]1O	–
0.54 µM	NC(=O)c1cccc(CCCCN(CCC[C@H](N)C(=O)O)C[C@H]2O[C@@H](n3cnc4c(N)ncnc43)[C@H](O)[C@@H]2O)c1	–
0.052 µM	COc1ccc(C(N)=O)cc1C#CCN(CC[C@H](N)C(=O)O)C[C@H]1O[C@@H](n2cnc3c(N)ncnc32)[C@H](O)[C@@H]1O	–
0.051 µM	Cc1ccc(CCCN(CC[C@H](N)C(=O)O)C[C@H]2O[C@@H](n3cnc4c(N)ncnc43)[C@H](O)[C@@H]2O)cc1C(N)=O	–
3 µM	NC(=O)c1cccc(CCCN(CCC[C@H](N)C(=O)O)C[C@H]2O[C@@H](n3cnc4c(N)ncnc43)[C@H](O)[C@@H]2O)c1	–
0.043 µM	NC(=O)c1cccc(CCCN(CC[C@H](N)C(=O)O)C[C@H]2O[C@@H](n3cnc4c(N)ncnc43)[C@H](O)[C@@H]2O)c1	–
